# Assay results reported in article PMC5218480 (PLoS ONE, 2017).
# System: MV-4-11 cells
# Experiment: Gene expression microarray analysis (Affymetrix PrimeView) and GSEA
# Assay type: cell-based, human
# Parameters: RFU PODN (11730768_x_at) / Fold change /veh PODN (11730768_x_at) / RFU LINC00158 (11744669_a_at) / Fold change /veh LINC00158 (11744669_a_at) / RFU DUSP10 (11751237_a_at) / Fold change /veh DUSP10 (11751237_a_at) / RFU ID3 (11757404_x_at) / Fold change /veh ID3 (11757404_x_at) / RFU PLEKHG5 (11737974_s_at) / Fold change /veh PLEKHG5 (11737974_s_at) / RFU LRRC4B (11730491_at) / Fold change /veh LRRC4B (11730491_at) / RFU GIMAP4 (11747438_a_at) / Fold change /veh GIMAP4 (11747438_a_at) / RFU KRT8 (11758183_x_at) / Fold change /veh KRT8 (11758183_x_at) / RFU CNN1 (11734310_a_at) / Fold change /veh CNN1 (11734310_a_at) / RFU VPS37D (11726825_at) / Fold change /veh VPS37D (11726825_at) / RFU C10orf10 (11716522_x_at) / Fold change /veh C10orf10 (11716522_x_at) / RFU KIR2DL2 /// KIR2DL4 /// KIR2DL5A /// KIR2DL5B /// KIR2DS1 /// KIR2DS2 /// KIR2DS3 /// KIR2DS4 /// KIR3DL3 /// KIR3DL3 /// KIR3DS1 (11738374_at) / Fold change /veh KIR2DL2 /// KIR2DL4 /// KIR2DL5A /// KIR2DL5B /// KIR2DS1 /// KIR2DS2 /// KIR2DS3 /// KIR2DS4 /// KIR3DL3 /// KIR3DL3 /// KIR3DS1 (11738374_at) / RFU C1QL1 (11718748_at) / Fold change /veh C1QL1 (11718748_at) / RFU TMPRSS4 (11747572_a_at) / Fold change /veh TMPRSS4 (11747572_a_at) / RFU HAMP (11756126_x_at) / Fold change /veh HAMP (11756126_x_at) / RFU RNFT2 (11725882_a_at) / Fold change /veh RNFT2 (11725882_a_at) / RFU NR4A2 (11747474_a_at) / Fold change /veh NR4A2 (11747474_a_at) / RFU ABCC12 (11746883_a_at) / Fold change /veh ABCC12 (11746883_a_at) / RFU TMEM136 (11760407_x_at) / Fold change /veh TMEM136 (11760407_x_at) / RFU CLDN22 /// WWC2 (11732394_at) / Fold change /veh CLDN22 /// WWC2 (11732394_at) / RFU HLA-DPB1 (11760878_x_at) / Fold change /veh HLA-DPB1 (11760878_x_at) / RFU SPINT1 (11716480_a_at) / Fold change /veh SPINT1 (11716480_a_at) / RFU GAP43 (11754022_s_at) / Fold change /veh GAP43 (11754022_s_at) / RFU A4GNT (11735810_at) / Fold change /veh A4GNT (11735810_at) / RFU PRB3 (11715151_x_at) / Fold change /veh PRB3 (11715151_x_at) / RFU TUBB4B (11761932_at) / Fold change /veh TUBB4B (11761932_at) / RFU CAPN14 (11732068_a_at) / Fold change /veh CAPN14 (11732068_a_at) / RFU TMCC2 (11721928_a_at) / Fold change /veh TMCC2 (11721928_a_at) / RFU IRGQ (11745062_a_at) / Fold change /veh IRGQ (11745062_a_at) / RFU FAM174B (11720279_a_at) / Fold change /veh FAM174B (11720279_a_at) / RFU TMPRSS4 (11748680_a_at) / Fold change /veh TMPRSS4 (11748680_a_at) / RFU FAM212B (11763350_a_at) / Fold change /veh FAM212B (11763350_a_at) / RFU PLEKHG5 (11743358_a_at) / Fold change /veh PLEKHG5 (11743358_a_at) / RFU ZSCAN30 (11745921_a_at) / Fold change /veh ZSCAN30 (11745921_a_at) / RFU CMKLR1 (11741424_a_at) / Fold change /veh CMKLR1 (11741424_a_at) / RFU LOC101060620 /// MAPK8IP1 (11723275_at) / Fold change /veh LOC101060620 /// MAPK8IP1 (11723275_at) / RFU SPTSSB (11747773_x_at) / Fold change /veh SPTSSB (11747773_x_at) / RFU PRSS12 (11739890_at) / Fold change /veh PRSS12 (11739890_at) / RFU BIN1 (11741810_x_at) / Fold change /veh BIN1 (11741810_x_at) / RFU WNT11 (11732464_a_at) / Fold change /veh WNT11 (11732464_a_at) / RFU C10orf10 (11716521_a_at) / Fold change /veh C10orf10 (11716521_a_at) / RFU C5orf56 (11738089_at) / Fold change /veh C5orf56 (11738089_at) / RFU CYB561 (11721691_x_at) / Fold change /veh CYB561 (11721691_x_at) / RFU ANKRD19P (11752326_a_at) / Fold change /veh ANKRD19P (11752326_a_at) / RFU OR2T12 /// OR2T33 /// OR2T8 (11738714_s_at) / Fold change /veh OR2T12 /// OR2T33 /// OR2T8 (11738714_s_at) / RFU VCAN (11748164_a_at) / Fold change /veh VCAN (11748164_a_at) / RFU JSRP1 (11732532_at) / Fold change /veh JSRP1 (11732532_at) / RFU KRTAP10-11 (11738290_x_at) / Fold change /veh KRTAP10-11 (11738290_x_at) / RFU MYO3A (11730013_a_at) / Fold change /veh MYO3A (11730013_a_at) / RFU EBF3 (11725865_a_at) / Fold change /veh EBF3 (11725865_a_at) / RFU CAMK2N1 (11719241_x_at) / Fold change /veh CAMK2N1 (11719241_x_at) / RFU C5orf56 (11738088_a_at) / Fold change /veh C5orf56 (11738088_a_at) / RFU OLFML3 (11715873_a_at) / Fold change /veh OLFML3 (11715873_a_at) / RFU LOC100653217 /// NTM (11731650_a_at) / Fold change /veh LOC100653217 /// NTM (11731650_a_at) / RFU MAPK11 (11762145_a_at) / Fold change /veh MAPK11 (11762145_a_at) / RFU FIZ1 (11724087_x_at) / Fold change /veh FIZ1 (11724087_x_at) / RFU OASL (11726364_x_at) / Fold change /veh OASL (11726364_x_at) / RFU SOX15 (11748057_x_at) / Fold change /veh SOX15 (11748057_x_at) / RFU CD79A (11719716_a_at) / Fold change /veh CD79A (11719716_a_at) / RFU HIST1H1D (11736915_at) / Fold change /veh HIST1H1D (11736915_at) / RFU CASKIN2 (11723855_a_at) / Fold change /veh CASKIN2 (11723855_a_at) / RFU LOC730098 (11760151_x_at) / Fold change /veh LOC730098 (11760151_x_at) / RFU OR4N2 (11742367_at) / Fold change /veh OR4N2 (11742367_at) / RFU PRRT2 (11749266_a_at) / Fold change /veh PRRT2 (11749266_a_at) / RFU SNX32 (11753110_a_at) / Fold change /veh SNX32 (11753110_a_at) / RFU CDHR5 (11726645_a_at) / Fold change /veh CDHR5 (11726645_a_at) / RFU RCAN1 (11760418_a_at) / Fold change /veh RCAN1 (11760418_a_at) / RFU FAM167A (11723789_a_at) / Fold change /veh FAM167A (11723789_a_at) / RFU FAM26E (11764081_at) / Fold change /veh FAM26E (11764081_at) / RFU ISYNA1 (11749810_s_at) / Fold change /veh ISYNA1 (11749810_s_at) / RFU ACY1 (11761880_at) / Fold change /veh ACY1 (11761880_at) / RFU 11764098_at / Fold change /veh 11764098_at / RFU SAMD14 (11745864_x_at) / Fold change /veh SAMD14 (11745864_x_at) / RFU NPB (11741838_a_at) / Fold change /veh NPB (11741838_a_at) / RFU TMPRSS6 (11731388_a_at) / Fold change /veh TMPRSS6 (11731388_a_at) / RFU KRTAP10-2 (11738614_at) / Fold change /veh KRTAP10-2 (11738614_at) / RFU ARHGAP8 /// PRR5-ARHGAP8 (11727945_x_at) / Fold change /veh ARHGAP8 /// PRR5-ARHGAP8 (11727945_x_at) / RFU KRTAP5-7 /// NADSYN1 (11734609_at) / Fold change /veh KRTAP5-7 /// NADSYN1 (11734609_at) / RFU RASL12 (11751679_a_at) / Fold change /veh RASL12 (11751679_a_at) / RFU CDKN2B (11736163_a_at) / Fold change /veh CDKN2B (11736163_a_at) / RFU PRF1 (11729649_at) / Fold change /veh PRF1 (11729649_at) / RFU, ZNF638 /// ZNF638-IT1 / Fold change vs veh, ZNF638 /// ZNF638-IT1 / RFU, PANK3 / Fold change vs veh, PANK3 / RFU, SH3YL1 / Fold change vs veh, SH3YL1 / RFU, ZEB2 / Fold change vs veh, ZEB2 / RFU, NRIP1 / Fold change vs veh, NRIP1 / RFU, PTTG1IP / Fold change vs veh, PTTG1IP / RFU, CAPN2 / Fold change vs veh, CAPN2 / RFU, MED14 / Fold change vs veh, MED14 / RFU, SNORA58 / Fold change vs veh, SNORA58 / RFU, C1orf63 / Fold change vs veh, C1orf63 / RFU, LRRFIP1 / Fold change vs veh, LRRFIP1 / RFU, NDUFAF7 / Fold change vs veh, NDUFAF7 / RFU, SLC12A2 / Fold change vs veh, SLC12A2 / RFU, IBTK / Fold change vs veh, IBTK / RFU, ESF1 / Fold change vs veh, ESF1 / Fold change vs veh, TMEM50B / RFU, TAOK1 / Fold change vs veh, TAOK1 / RFU, ACBD3 / Fold change vs veh, ACBD3 / RFU, TMA16 / Fold change vs veh, TMA16 / RFU, RWDD3 / Fold change vs veh, RWDD3 / RFU, BCAT1 / Fold change vs veh, BCAT1 / RFU, EDEM3 / Fold change vs veh, EDEM3 / RFU, TMEM33 / Fold change vs veh, TMEM33 / RFU, WDR75 / Fold change vs veh, WDR75 / RFU, AHCTF1 / Fold change vs veh, AHCTF1 / RFU, TFRC / Fold change vs veh, TFRC / RFU, ZDHHC17 / Fold change vs veh, ZDHHC17 / RFU, NOM1 / Fold change vs veh, NOM1 / RFU, ARL8B / Fold change vs veh, ARL8B / RFU, ZBTB11 / Fold change vs veh, ZBTB11 / RFU, TAMM41 / Fold change vs veh, TAMM41 / RFU, KIAA1704 /// LOC100996395 / Fold change vs veh, KIAA1704 /// LOC100996395 / RFU, ING1 / Fold change vs veh, ING1 / RFU, TRMT61B / Fold change vs veh, TRMT61B / RFU, FUBP3 / Fold change vs veh, FUBP3 / RFU, TP53 / Fold change vs veh, TP53 / RFU, TNKS2 / Fold change vs veh, TNKS2 / RFU, ZFP14 / Fold change vs veh, ZFP14 / RFU, ACTR2 / Fold change vs veh, ACTR2 / RFU, PPP3R1 / Fold change vs veh, PPP3R1 / RFU, PIK3R1 / Fold change vs veh, PIK3R1 / RFU, HNRNPA1 / Fold change vs veh, HNRNPA1 / RFU, RNF170 / Fold change vs veh, RNF170 / RFU, ZNF28 / Fold change vs veh, ZNF28 / RFU, RNGTT / Fold change vs veh, RNGTT / RFU, OGT / Fold change vs veh, OGT / RFU, BRD1 / Fold change vs veh, BRD1 / RFU, MARS / Fold change vs veh, MARS / RFU, ZNF655 / Fold change vs veh, ZNF655 / RFU, FAHD1 / Fold change vs veh, FAHD1 / RFU, BDP1 / Fold change vs veh, BDP1 / RFU, LRRCC1 / Fold change vs veh, LRRCC1 / RFU, ARID1A / Fold change vs veh, ARID1A / RFU, ZNF146 / Fold change vs veh, ZNF146 / RFU, ZNF330 / Fold change vs veh, ZNF330 / RFU, GPN3 / Fold change vs veh, GPN3 / RFU, C9orf123 / Fold change vs veh, C9orf123 / RFU, N4BP2L2 / Fold change vs veh, N4BP2L2 / RFU, ARFIP1 / Fold change vs veh, ARFIP1 / RFU, FAM179B / Fold change vs veh, FAM179B / RFU, BCL10 / Fold change vs veh, BCL10 / RFU, UHRF1BP1L / Fold change vs veh, UHRF1BP1L / RFU, BET1 / Fold change vs veh, BET1 / RFU, CNOT2 / Fold change vs veh, CNOT2 / RFU, ZNF268 / Fold change vs veh, ZNF268 / Fold change vs veh, ZNF507 / RFU, DGCR2 / Fold change vs veh, DGCR2 / RFU, WDSUB1 / Fold change vs veh, WDSUB1 / Fold change vs veh, HSP90B1 /// MIR3652 / RFU, ADSS / Fold change vs veh, ADSS / RFU, GK / Fold change vs veh, GK / RFU, ZNF148 / Fold change vs veh, ZNF148 / RFU, TAF9 / Fold change vs veh, TAF9 / RFU, SLC1A5 / Fold change vs veh, SLC1A5 / RFU, SLMO2 / Fold change vs veh, SLMO2 / RFU, ABCC4 / Fold change vs veh, ABCC4 / RFU, LOC101060439 /// RAP1B / Fold change vs veh, LOC101060439 /// RAP1B / RFU, RFX7 / Fold change vs veh, RFX7 / RFU, GTPBP10 / Fold change vs veh, GTPBP10 / RFU, CNEP1R1 / Fold change vs veh, CNEP1R1 / RFU, BIVM-ERCC5 /// ERCC5 / Fold change vs veh, BIVM-ERCC5 /// ERCC5 / RFU, ILF3 / Fold change vs veh, ILF3 / RFU 11762660_at / Fold change /veh 11762660_at / RFU VCAN (11757783_s_at) / Fold change /veh VCAN (11757783_s_at) / RFU DDX43 (11728927_at) / Fold change /veh DDX43 (11728927_at) / RFU KRT8 (11758188_x_at) / Fold change /veh KRT8 (11758188_x_at) / RFU NKD1 (11759106_at) / Fold change /veh NKD1 (11759106_at) / RFU SRD5A1 (11742802_a_at) / Fold change /veh SRD5A1 (11742802_a_at) / RFU TPSAB1 /// TPSB2 (11721975_s_at) / Fold change /veh TPSAB1 /// TPSB2 (11721975_s_at) / RFU GSTM3 (11746129_a_at) / Fold change /veh GSTM3 (11746129_a_at) / RFU IL23R (11737362_x_at) / Fold change /veh IL23R (11737362_x_at) / RFU TMEM51 (11727254_a_at) / Fold change /veh TMEM51 (11727254_a_at) / RFU PIWIL2 (11732686_x_at) / Fold change /veh PIWIL2 (11732686_x_at) / RFU ORM1 (11744905_x_at) / Fold change /veh ORM1 (11744905_x_at) / RFU CCDC152 (11743942_at) / Fold change /veh CCDC152 (11743942_at) / RFU ECM1 (11717891_a_at) / Fold change /veh ECM1 (11717891_a_at) / RFU IL23R (11748794_a_at) / Fold change /veh IL23R (11748794_a_at) / RFU TNFAIP8L3 (11732012_x_at) / Fold change /veh TNFAIP8L3 (11732012_x_at) / RFU MBOAT4 (11741988_at) / Fold change /veh MBOAT4 (11741988_at) / RFU 11764193_at / Fold change /veh 11764193_at / RFU TMEM53 (11763286_at) / Fold change /veh TMEM53 (11763286_at) / RFU MAGEB2 (11727129_at) / Fold change /veh MAGEB2 (11727129_at) / RFU TMEM200A (11744735_a_at) / Fold change /veh TMEM200A (11744735_a_at) / RFU CCDC152 (11751479_a_at) / Fold change /veh CCDC152 (11751479_a_at) / RFU FAM211A (11726209_a_at) / Fold change /veh FAM211A (11726209_a_at) / RFU RGS16 (11746705_a_at) / Fold change /veh RGS16 (11746705_a_at) / RFU VCAN (11755009_s_at) / Fold change /veh VCAN (11755009_s_at) / RFU RHOB (11743442_s_at) / Fold change /veh RHOB (11743442_s_at) / RFU RGS16 (11720943_a_at) / Fold change /veh RGS16 (11720943_a_at) / RFU RGS16 (11720944_at) / Fold change /veh RGS16 (11720944_at) / RFU, VPS4B / Fold change vs veh, VPS4B / RFU, CREB1 / Fold change vs veh, CREB1 / RFU, DNAJC13 / Fold change vs veh, DNAJC13 / RFU, GNAQ / Fold change vs veh, GNAQ / RFU, CDK5R1 / Fold change vs veh, CDK5R1 / RFU, ZRANB3 / Fold change vs veh, ZRANB3 / RFU, CUL4A / Fold change vs veh, CUL4A / RFU, CCNY / Fold change vs veh, CCNY / RFU, UFL1 / Fold change vs veh, UFL1 / RFU, COG3 / Fold change vs veh, COG3 / RFU, DIAPH2 / Fold change vs veh, DIAPH2 / RFU, SKA2 / Fold change vs veh, SKA2 / RFU, AFF3 / Fold change vs veh, AFF3 / RFU, LMF1 / Fold change vs veh, LMF1 / RFU, IPO11 / Fold change vs veh, IPO11 / RFU, DFFB / Fold change vs veh, DFFB / RFU, FOXP1 / Fold change vs veh, FOXP1 / RFU, CARD8 / Fold change vs veh, CARD8 / RFU, STRN3 / Fold change vs veh, STRN3 / RFU, ADK / Fold change vs veh, ADK / RFU, RASSF2 / Fold change vs veh, RASSF2 / RFU, WIPF1 / Fold change vs veh, WIPF1 / RFU, LARP1B / Fold change vs veh, LARP1B / RFU, RASA1 / Fold change vs veh, RASA1 / RFU, RB1 / Fold change vs veh, RB1 / RFU, PPFIA1 / Fold change vs veh, PPFIA1 / RFU, MAT2A / Fold change vs veh, MAT2A / RFU, CCT5 / Fold change vs veh, CCT5 / RFU, WDR92 / Fold change vs veh, WDR92 / RFU, CUX1 / Fold change vs veh, CUX1 / RFU, TTC7A / Fold change vs veh, TTC7A / RFU, TMEM135 / Fold change vs veh, TMEM135 / RFU, DEPTOR / Fold change vs veh, DEPTOR / RFU, CPM / Fold change vs veh, CPM / RFU, DNAJB6 / Fold change vs veh, DNAJB6 / RFU, CACNA2D3 / Fold change vs veh, CACNA2D3 / RFU, DTX4 / Fold change vs veh, DTX4 / RFU, TFCP2 / Fold change vs veh, TFCP2 / RFU, GMCL1 /// GMCL1P1 / Fold change vs veh, GMCL1 /// GMCL1P1 / RFU, AEBP2 / Fold change vs veh, AEBP2 / RFU, SNHG1 /// SNORD22 /// SNORD25 /// SNORD26 /// SNORD27 /// SNORD28 /// SNORD29 /// SNORD31 / Fold change vs veh, SNHG1 /// SNORD22 /// SNORD25 /// SNORD26 /// SNORD27 /// SNORD28 /// SNORD29 /// SNORD31 / Fold change (Aza/veh), C12orf56 (ProbeSet 11735607_a_at) / Fold change (ACY-1035/veh), C12orf56 (ProbeSet 11735607_a_at) / Fold change (Aza/veh), FGFR1OP (ProbeSet 11751329_s_at) / Fold change (ACY-1035/veh), FGFR1OP (ProbeSet 11751329_s_at) / Fold change (Aza/veh), VPS36 (ProbeSet 11739960_a_at) / Fold change (ACY-1035/veh), VPS36 (ProbeSet 11739960_a_at) / RFU SYPL1 (11715823_x_at) / Fold change /veh SYPL1 (11715823_x_at) / RFU IGFBP7 (11715501_s_at) / Fold change /veh IGFBP7 (11715501_s_at) / RFU REEP3 (11722064_at) / Fold change /veh REEP3 (11722064_at) / RFU IGLL1 (11728026_x_at) / Fold change /veh IGLL1 (11728026_x_at): dose or concentration left out as unconfirmed
# Conditions: ProbeSet 11732433_s_at; LIST B
structure (smiles),measurement,value
Nc1ncn([C@@H]2O[C@H](CO)[C@@H](O)[C@H]2O)c(=O)n1 [azacitidine],"RFU, GK",260.90 RFU
